Among the test systems are OVCAR-3 ovarian; UACC-62 melanoma; SN12C renal; T-47D breast; NCI-H522 lung; SNB-19 CNS; SF-268 CNS; MALME-3M melanoma; LOX IMVI melanoma; SK-MEL-5 melanoma; RXF 393 renal; SR leukemia; SK-MEL-28 melanoma.
Assay in all cases: NCI-60 cell line screen, 48 h

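In this assay, cells in 96-well plates receive the compound at five concentrations for 48 hours. Endpoints are linearly interpolated between the surrounding concentrations. Definition used: TGI = concentration required for complete inhibition of growth.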

Consider `C[C@]12CC/C(=N\OCCN3CCCC3)C=C1CCC1C2CC[C@@]2(C)C1CC[C@]2(C)O` (some centres undefined), for which the TGI was found to be 24.1 µM in the assay with OVCAR-3 ovarian; 11.8 µM in the assay with UACC-62 melanoma; 21.3 µM with SN12C renal; 64 µM in the assay with T-47D breast; 8.57 µM in the assay with NCI-H522 lung; 49 µM in the assay on SNB-19 CNS. The TGI came out at 31.9 µM with SF-268 CNS; 18.7 µM in the assay on MALME-3M melanoma; 15.1 µM with LOX IMVI melanoma; 29.9 µM in the assay with SK-MEL-5 melanoma; 75.5 µM in the assay on RXF 393 renal.

Regarding `COc1ccccc1NC(=S)Nc1ccccn1`, the TGI with SR leukemia, in the assay with OVCAR-3 ovarian, in the assay on UACC-62 melanoma, in the assay on NCI-H522 lung, in the assay with SNB-19 CNS and in the assay with SF-268 CNS was greater than 100 µM in each case. Besides, the TGI in the assay on MALME-3M melanoma, with SK-MEL-28 melanoma, in the assay with LOX IMVI melanoma, in the assay on SK-MEL-5 melanoma and in the assay with RXF 393 renal was greater than 100 µM in each case.

For `CCOc1ccc(NC(=O)/C=C/c2ccco2)cc1`, the TGI with SR leukemia, in the assay with UACC-62 melanoma, in the assay on SN12C renal, with NCI-H522 lung, in the assay on SNB-19 CNS and in the assay on SF-268 CNS was greater than 100 µM each time. For the same compound, the TGI in the assay with MALME-3M melanoma, in the assay with SK-MEL-28 melanoma, in the assay with LOX IMVI melanoma, in the assay on SK-MEL-5 melanoma and in the assay with RXF 393 renal was greater than 100 µM in each case.

Regarding `CC(=O)/C=C1/C(=O)C(CC(C)C)=C1CC(C)C`, the TGI in the assay with UACC-62 melanoma, with SN12C renal, with T-47D breast, in the assay on NCI-H522 lung, in the assay on SNB-19 CNS and in the assay with SF-268 CNS was greater than 100 µM in each case. The TGI with MALME-3M melanoma, in the assay on SK-MEL-28 melanoma, in the assay on LOX IMVI melanoma, in the assay on SK-MEL-5 melanoma and with RXF 393 renal was greater than 100 µM throughout.

Take `CC(C)CC1C(=O)OC(C)(C)OC1=O`: the TGI in the assay on OVCAR-3 ovarian, in the assay on UACC-62 melanoma, with SN12C renal, in the assay on T-47D breast, in the assay with NCI-H522 lung and in the assay on SNB-19 CNS was greater than 100 µM in each case. The TGI in the assay with SF-268 CNS, in the assay with SK-MEL-28 melanoma, with LOX IMVI melanoma, in the assay with SK-MEL-5 melanoma and with RXF 393 renal was greater than 100 µM in each case.

`COc1ccc2c(c1)C1Oc3ccccc3CC1CO2` (centres undefined): the TGI in the assay on OVCAR-3 ovarian, in the assay on UACC-62 melanoma, in the assay with SN12C renal, in the assay on T-47D breast, in the assay on NCI-H522 lung and in the assay with SNB-19 CNS was greater than 100 µM each time. In addition, the TGI in the assay with SF-268 CNS is greater than 100 µM; in the assay with MALME-3M melanoma, greater than 100 µM; in the assay with LOX IMVI melanoma it was greater than 100 µM; in the assay with SK-MEL-5 melanoma, greater than 100 µM; in the assay on RXF 393 renal, 88.9 µM.

Regarding `c1ccc(Nc2nnc(-c3ccccc3Nc3ccccc3-c3nnc(Nc4ccccc4)s3)s2)cc1`, the TGI in the assay with OVCAR-3 ovarian, in the assay with UACC-62 melanoma, in the assay with NCI-H522 lung, with SNB-19 CNS, with SF-268 CNS and in the assay on MALME-3M melanoma was greater than 100 µM each time. For the same compound, the TGI in the assay on SK-MEL-28 melanoma, in the assay on LOX IMVI melanoma, in the assay on SK-MEL-5 melanoma and with RXF 393 renal was greater than 100 µM in each case.

As to `Cc1cc(O)c(C(O)c2ccccn2)cc1O` (centres undefined), the TGI in the assay on SR leukemia was 10.2 µM; in the assay on OVCAR-3 ovarian it was 28.6 µM; in the assay with UACC-62 melanoma, 28.7 µM; with SN12C renal it was 43.7 µM; in the assay with NCI-H522 lung, 14.7 µM; in the assay with SNB-19 CNS it was greater than 100 µM. Further, the TGI in the assay on SF-268 CNS was greater than 100 µM; in the assay with MALME-3M melanoma, 40.1 µM; in the assay on SK-MEL-28 melanoma, 33.5 µM; with LOX IMVI melanoma it was 30.8 µM; in the assay with SK-MEL-5 melanoma, 38.4 µM; in the assay on RXF 393 renal it was 30.2 µM.

For the compound `CSCCCNC(=O)c1csc(-c2csc(CCNC(=O)CNC(=O)OC(C)(C)C)n2)n1`, the TGI in the assay on SR leukemia, in the assay on OVCAR-3 ovarian, with UACC-62 melanoma, in the assay with SN12C renal, with NCI-H522 lung and in the assay with SNB-19 CNS was greater than 100 µM throughout. The TGI in the assay on SF-268 CNS, in the assay with MALME-3M melanoma, in the assay with SK-MEL-28 melanoma, in the assay with LOX IMVI melanoma, with SK-MEL-5 melanoma and in the assay on RXF 393 renal was greater than 100 µM each time.

As for `CC(=O)NC1=C(NCCO)C(=O)c2ccccc2C1=O`, the TGI in the assay on SR leukemia, with OVCAR-3 ovarian, in the assay with UACC-62 melanoma, with SN12C renal, in the assay with NCI-H522 lung and with SNB-19 CNS was greater than 50 µM in each case. The TGI was greater than 50 µM in the assay on SF-268 CNS; 46 µM in the assay on MALME-3M melanoma; greater than 50 µM with SK-MEL-28 melanoma; greater than 50 µM in the assay with LOX IMVI melanoma; greater than 50 µM with SK-MEL-5 melanoma; greater than 50 µM in the assay on RXF 393 renal.

`CN1CC[C@@]2(c3cccc(O)c3)CC(=O)/C(=C/c3ccc(Cl)c(Cl)c3)[C@H]1C2`: the TGI with SR leukemia turned out to be 5.92 µM; with OVCAR-3 ovarian, 4.07 µM; in the assay with SN12C renal it was 3.89 µM; in the assay on SNB-19 CNS it was 12.5 µM; in the assay with SF-268 CNS it was 7.01 µM; in the assay on MALME-3M melanoma, 13.1 µM. Besides, the TGI in the assay with SK-MEL-28 melanoma stood at 4.65 µM; in the assay with LOX IMVI melanoma, 2.81 µM; in the assay on SK-MEL-5 melanoma it was 5.53 µM; with RXF 393 renal it was 5.62 µM.

In the case of `COc1cc2c(cc1OCCCN1CCOCC1)N=C[C@@H]1CCCN1C2=O`, the TGI in the assay on SR leukemia was 39.8 µM; with OVCAR-3 ovarian, 8.08 µM; in the assay with UACC-62 melanoma, 29.2 µM; in the assay on SN12C renal it was greater than 100 µM; in the assay with NCI-H522 lung it was 3.97 µM; in the assay with SNB-19 CNS it was greater than 100 µM. Moreover, the TGI is greater than 100 µM in the assay on SF-268 CNS; 33.6 µM in the assay on MALME-3M melanoma; 29.1 µM with SK-MEL-28 melanoma; greater than 100 µM with LOX IMVI melanoma; 27.4 µM with SK-MEL-5 melanoma; 8.13 µM with RXF 393 renal.

(Values after PubChem BioAssay (NCI).)
